“And” between values parts separate entries of the source, which are not always exact repeats. Equal entries are not always repeated. Where two headings read alike, the source gives them in different places.
Assays:
[1] = molecular target: T1, Efl1 R1086Q•Sdo1 (Saccharomyces cerevisiae, UniProt P53893, R1086Q); assay: ITC: binding of guanine nucleotides to pre-formed complex Efl1 R1086Q•Sdo1; details: for ΔCpb: from ΔHb at 25–35 °C; for -TΔs / Δg / Δh / κ (heterotropic cooperativity): Effect of Mg^2+
T1 construct: made in house; host or cells: Efl1: Saccharomyces cerevisiae; Sdo1: Escherichia coli C41
Procedure: All calorimetric measurements were carried out using MicroCal^TM iTC200 System (GE Healthcare, Northampton, MA, USA) in a temperature range of 25–35 °C. Experiments were performed in a buffer consisting of 50 mM Tris-HCl (pH 8.0), 150 mM NaCl, 100 µM DTT, and 5% glycerol. In the titrations with Mg^2+-bound nucleotides, both the ligand and protein solutions contained 5 mM MgCl2. In the case of titrations with Mg^2+-free nucleotide, both the ligand and protein solutions were supplemented with 2 mM EDTA to sequester any residual trace of metal ions in solution. Protein samples and ligands were prepared in the exact same buffer prior to each titration. Protein concentration in the cell comprised 30–50 µM GTPase, while the ligand concentration in the syringe was 2–3 mM for GTP, MgGTP, GDP, and MgGDP. To ensure measuring the interaction of the complex Efl1 R1086Q•Sdo1 with the nucleotide, an eight-fold concentration excess of Sdo1 was used compared with that of the enzyme. […] The titration schedule consisted of 15–20 consecutive injections of the ligand with 5 min intervals between injections and a stirring rate of 700 rpm. The dilution heat of the ligand was obtained by adding the ligand to a buffer solution under identical conditions and with the same injection schedule used for the protein sample. All samples were degassed for 10 min prior to the experiment.
The binding isotherms obtained for the isolated GTPase in the presence of Mg(II) were analysed using a ternary model in which the protein can bind to the free nucleotide (G(D)TP) or that bound to one magnesium ion (MgG(D)TP); additionally, GTP may also exist in the form of Mg2GTP, which is not recognised by the protein. The derivation of this coupled-equilibria model can be reviewed in [6, 31]. The binding constant (Kb), the enthalpy change (∆Hb), and the stoichiometry (n) were obtained with the non-linear routines implemented in Origin 5.0 (OriginLab, Co., Northampton, MA, USA) using a one-binding-site model as described in [32, 33]. The heterotropic cooperativity for the binding of guanine nucleotides and Sdo1 to Efl1 R1086Q were calculated as previously described in [6, 32]. The cooperative effects of Mg(II) on the binding of guanine nucleotides to Efl1 R1086Q alone and bound to Sdo1 were calculated as follows:κ = KE-MG/KE-G κ = KES-MG/KES-G Δh = ΔHE-MG − ΔHE-G Δh = ΔHES-MG − ΔHES-G where subscripts E-MG and E-G stand for the association of the metal-bound and metal-free guanine nucleotide with mutant Efl1, respectively. Corresponding expressions applied to the heterotropic cooperativity of the binding of nucleotides to the preformed complex, Efl1•Sdo1 (ES).
The impact of Sdo1 on the binding of Efl1 R1086Q to guanine nucleotides in the presence of magnesium ions is contained in KES-MG and ΔHES-MG relative to the KE-S and ΔHE-S values; analogous ratios report the effects in the absence of Mg(II):κ = KES-MG/KE-S κ = KES-G/KE-G Δh = ΔHES-MG − ΔHE-S Δh = ΔHES-G − ΔHE-G
The corresponding cooperative entropy change was calculated as:TΔs = Δh − Δg = Δh + RTlnκ
The detailed methodology and equations to compute the changes in the accessible surface area (∆ASA) of the GTPase upon binding to nucleotides and the ∆S energetic-based parameters are reported in [6]. Briefly, the water-accessible areas (ASAs) were computed using programme NACCESS, while the changes in accessible surface area (ΔASA) upon the formation of each GTPase–nucleotide complex were estimated considering the difference between the complex and the sum of the free interacting partners. The calculated polar (ΔASAp) and apolar (ΔASAap) area changes were subsequently used to estimate the free molecular partners. […]

[2] = system: wild-type Efl1; details: cited from earlier work; for -TΔSb / Kd / ΔGb / ΔHb / ΔCpb: guanine nucleotide
[3] = system: wild-type Efl1•Sdo1; design: method as in PMID 30780079; details: −Mg^2+, cited from earlier work
[4] = Effect of Mg^2+, wild-type Efl1 − Sdo1, 30 °C
[5] = Effect of Sdo1, wild-type Efl1 − Mg^2+, 30 °C

T1 sequence (P53893 whole entry R1086Q): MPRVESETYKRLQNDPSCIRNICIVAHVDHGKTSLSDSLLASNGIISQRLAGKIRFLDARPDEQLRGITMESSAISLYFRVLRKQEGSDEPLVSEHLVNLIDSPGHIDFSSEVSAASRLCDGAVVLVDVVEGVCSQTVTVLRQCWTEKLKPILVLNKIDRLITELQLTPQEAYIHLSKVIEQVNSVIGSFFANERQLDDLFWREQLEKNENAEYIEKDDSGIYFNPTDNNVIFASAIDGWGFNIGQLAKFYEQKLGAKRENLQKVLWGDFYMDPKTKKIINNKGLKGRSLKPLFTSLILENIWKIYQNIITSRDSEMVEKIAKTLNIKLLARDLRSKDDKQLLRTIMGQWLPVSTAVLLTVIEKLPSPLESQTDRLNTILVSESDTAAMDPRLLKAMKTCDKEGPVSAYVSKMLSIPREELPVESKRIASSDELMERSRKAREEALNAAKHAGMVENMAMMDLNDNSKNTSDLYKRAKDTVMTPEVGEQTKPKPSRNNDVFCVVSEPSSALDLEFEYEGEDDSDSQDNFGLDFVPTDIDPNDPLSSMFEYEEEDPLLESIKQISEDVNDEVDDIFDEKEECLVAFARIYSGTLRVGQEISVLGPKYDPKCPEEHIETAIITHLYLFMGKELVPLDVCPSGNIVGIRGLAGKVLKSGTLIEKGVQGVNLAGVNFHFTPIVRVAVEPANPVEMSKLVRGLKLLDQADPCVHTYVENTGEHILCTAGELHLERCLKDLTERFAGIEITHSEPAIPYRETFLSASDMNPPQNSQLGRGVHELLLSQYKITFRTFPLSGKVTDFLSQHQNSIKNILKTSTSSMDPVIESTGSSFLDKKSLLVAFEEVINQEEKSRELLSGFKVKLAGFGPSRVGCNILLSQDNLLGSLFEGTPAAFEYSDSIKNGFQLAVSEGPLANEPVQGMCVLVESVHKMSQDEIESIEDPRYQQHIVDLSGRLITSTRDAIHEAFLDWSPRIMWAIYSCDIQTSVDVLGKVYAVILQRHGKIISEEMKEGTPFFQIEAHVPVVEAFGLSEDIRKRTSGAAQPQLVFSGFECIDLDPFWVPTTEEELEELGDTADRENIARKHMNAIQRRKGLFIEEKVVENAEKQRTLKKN
T1 sequence (Q07953 whole entry, further chain): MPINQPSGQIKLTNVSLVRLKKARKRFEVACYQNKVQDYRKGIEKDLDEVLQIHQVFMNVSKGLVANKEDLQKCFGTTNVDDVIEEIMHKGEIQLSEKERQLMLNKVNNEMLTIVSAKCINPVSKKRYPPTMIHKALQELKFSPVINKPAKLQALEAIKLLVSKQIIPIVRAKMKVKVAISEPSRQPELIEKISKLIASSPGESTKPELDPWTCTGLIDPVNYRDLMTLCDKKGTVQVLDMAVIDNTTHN

## Nc1nc2c(ncn2[C@@H]2O[C@H](COP(=O)(O)OP(=O)(O)O)[C@@H](O)[C@H]2O)c(=O)[nH]1 [GDP]
[1]; +Mg^2+ vs −Mg^2+
  fold greater affinity in the presence of magnesium ions: 2–5 times
[1]; +Mg^2+, 25 °C
  -TΔSb: -4.7 kcal/mol
  ΔGb: -6.9 kcal/mol
  ΔHb: -2.1 ± 0.08 kcal/mol
  Kd: 9 ± 2 µM
[1]; +Mg^2+, 30 °C
  -TΔSb: -3.3 kcal/mol
  Nconfres (number of residues changing conformation, absolute value): 25
  Nconfrotb (number of routable bonds changing conformation, absolute value): 34
  ΔCpconf: −267 cal mol^−1 K^−1
  ΔCprb: −48 cal mol^−1 K^−1
  ΔGb: -7.1 kcal/mol
  ΔHb: -3.8 ± 0.05 kcal/mol
  ΔSb: 11 cal mol^−1 K^−1
  ΔSconf: −57 cal mol^−1 K^−1
  ΔSsolv: 75 cal mol^−1 K^−1
  −ΔASAconf: 1198 Å^2
  Kd: 8 ± 1 µM
[1]; +Mg^2+, 35 °C
  -TΔSb: -2.0 kcal/mol
  ΔGb: -7.3 kcal/mol
  ΔHb: -5.3 ± 0.11 kcal/mol
  Kd: 6 ± 1 µM
[1]; +Mg^2+
  ΔCpb: −315 cal mol^−1 K^−1 and −315 ± 9 cal mol^−1 K^−1
[1]; Efl1 R1086Q + Sdo1, 25 °C
  -TΔs: -0.7 kcal/mol
  Δg: -0.4 kcal/mol
  Δh: 0.3 kcal/mol
  κ (heterotropic cooperativity): 1.9
[1]; Efl1 R1086Q + Sdo1, 30 °C
  -TΔs: -2.4 kcal/mol
  Δg: -0.8 kcal/mol
  Δh: 1.6 kcal/mol
  κ (heterotropic cooperativity): 3.7
[1]; Efl1 R1086Q + Sdo1, 35 °C
  -TΔs: -3.7 kcal/mol
  Δg: -1.0 kcal/mol
  Δh: 2.7 kcal/mol
  κ (heterotropic cooperativity): 5.4
[1]; −Mg^2+, 25 °C
  Kd: 17 ± 0.5 µM
  -TΔSb: -4.0 kcal/mol
  ΔGb: -6.5 kcal/mol
  ΔHb: -2.5 ± 0.4 kcal/mol
[1]; −Mg^2+, 30 °C
  Kd: 30 ± 4 µM
  -TΔSb: -1.0 kcal/mol
  Nconfres (number of residues changing conformation, absolute value): 50
  Nconfrotb (number of routable bonds changing conformation, absolute value): 72
  ΔCpconf: −520 cal mol^−1 K^−1
  ΔGb: -6.3 kcal/mol
  ΔHb: -5.4 ± 0.6 kcal/mol
  ΔSb: 3 cal mol^−1 K^−1
  ΔSconf: −121 cal mol^−1 K^−1
  ΔSsolv: 132 cal mol^−1 K^−1
  −ΔASAconf: 2334 Å^2
[1]; −Mg^2+, 35 °C
  Kd: 34 ± 5 µM
  -TΔSb: 1.7 kcal/mol
  ΔGb: -6.30 kcal/mol
  ΔHb: -8.0 ± 0.8 kcal/mol
[1]; −Mg^2+
  ΔCpb: −550 cal mol^−1 K^−1 and −550 ± 18 cal mol^−1 K^−1
[2]; [4]
  -TΔs: -0.5 kcal/mol
  Δg: 0.6 kcal/mol
  Δh: 1.1 kcal/mol
  κ (heterotropic cooperativity): 0.4
[2]; [5]
  -TΔs: 1.5 kcal/mol
  Δg: 0.8 kcal/mol
  Δh: -0.7 kcal/mol
  κ (heterotropic cooperativity): 0.3
[2]; +Mg^2+, 30 °C
  -TΔSb: -0.5 kcal/mol
  Kd: 37 µM
  ΔGb: -6.1 kcal/mol
  ΔHb: -5.6 ± 0.2 kcal/mol
[2]; +Mg^2+
  ΔCpb: −310 ± 5 cal mol^−1 K^−1 and −310 cal mol^−1 K^−1
[2]; −Mg^2+, 30 °C
  -TΔSb: 0.0 kcal/mol
  Kd: 16 µM
  ΔGb: -6.7 kcal/mol
  ΔHb: -6.7 ± 0.3 kcal/mol
[2]; −Mg^2+
  ΔCpb: −318 ± 35 cal mol^−1 K^−1 and −318 cal mol^−1 K^−1
[3]; 30 °C
  -TΔSb: 1.5 kcal/mol
  Kd: 52 µM
  ΔGb: -5.9 kcal/mol
  ΔHb: -7.4 ± 0.0 kcal/mol
[3]
  ΔCpb: −640 cal mol^−1 K^−1 and −640 ± 34 cal mol^−1 K^−1

Source: PMC9405973, “Altered Conformational Landscape upon Sensing Guanine Nucleotides in a Disease Mutant of Elongation Factor-like 1 (EFL1) GTPase” (Biomolecules, 2022)
